We go through 2 compounds from patent US10556889B1, “Salvinorin derivatives” (Blue Sky Pharmaceuticals, LLC, priority 2018, dated 2020).

Assay [1] concerns the target T1, uOR (Mus musculus, UniProt P42866). Nature of the assay: Agonist induced ERK 1/2 phosphorylation (efficacy and potency relative to DAMGO).
The target in assay [2] is T1, uOR. Nature of the assay: β-arrestin recruitment to uOR / receptor internalization. The class given is cell-based. On the set-up: expressed in transfected cells. The conditions noted are these: for Max Fold Efficacy: maximum signal/background ratio for uOR receptor internalization at the EC50; for EC50: recruitment of beta-arrestin to interact with uOR, bound given in μM, read-out: β-arrestin Recruitment EC50 ± SEM. From the text:
The data provided in Tables 1A and 1B below were obtained using standard analytical techniques known to those skilled in the art. Such techniques are described in detail in C.
[…] were transiently transfected (electroporation) with combinations of cDNA for hemagglutinin (HA-N terminus)-tagged uOR, beta-arrestin2 tagged with green fluorescent protein, mouse uOR tagged at the C terminus with yellow fluorescent protein and GRK-2. […] After addition of drug, cells were visualized using confocal microscopy. Multiple cells were recorded per dish after more than four separate transfection experiments—representative cells are shown in the manuscript.
The “β-arrestin Recruitment EC50±SEM” column in Table 2 below represents the degree to which each tested compound recruited beta-arrestin to interact with uOR. As will be appreciated by those skilled in the art, EC50 refers to the concentration of a drug which induces a response halfway between the baseline and maximum after a specified exposure time. In this instance, lower values indicate greater potency of the molecule, and this is […].
As will also be understood by those skilled in the art, “Max Fold Efficacy” refers to the maximum signal/background ratio that an agonist will induce or, conversely, that an antagonist will inhibit an agonist from inducing a response. In Table 2 below, the “Max Fold Efficacy” column indicates the strength of the signal increase over the control/background measurement for uOR receptor internalization at the E.C. 50.

T1 sequence (P42866 whole entry): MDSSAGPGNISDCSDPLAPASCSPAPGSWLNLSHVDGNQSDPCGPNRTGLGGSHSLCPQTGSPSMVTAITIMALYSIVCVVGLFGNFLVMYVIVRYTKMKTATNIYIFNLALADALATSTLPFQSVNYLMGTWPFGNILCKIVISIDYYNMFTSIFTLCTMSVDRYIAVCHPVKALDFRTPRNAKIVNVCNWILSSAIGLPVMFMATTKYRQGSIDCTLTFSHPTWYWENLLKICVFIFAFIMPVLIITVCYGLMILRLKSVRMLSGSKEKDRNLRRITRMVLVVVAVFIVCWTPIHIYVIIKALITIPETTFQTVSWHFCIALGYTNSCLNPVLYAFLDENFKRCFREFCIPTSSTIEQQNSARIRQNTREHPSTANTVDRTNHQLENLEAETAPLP

For `COC(=O)[C@@H]1C[C@H](OC(=O)c2ccc(Cl)nc2)C(=O)[C@H]2[C@@]1(C)CC[C@H]1C(=O)O[C@H](c3ccoc3)C[C@]21C` [Formula Id-ii], the values for the EC50 in assay [1] and in assay [2] were 373 nM and > 10 µM, respectively. Besides, the “Max Fold Efficacy” value in assay [2] stood at 9.3.

As for `COC(=O)[C@@H]1C[C@H](OC(=O)c2cc(C)cs2)C(=O)[C@H]2[C@@]1(C)CC[C@H]1C(=O)O[C@H](c3ccoc3)C[C@]21C` [Formula Id-iii], the EC50 is 377 nM in assay [1] and > 10 µM in assay [2]. In addition, the “Max Fold Efficacy” value in assay [2] is reported as 6.1.
